Assay type in all cases: functional; call rule not given here
In assay [1] the target is T1, Metabotropic glutamate receptor 5 (Rattus norvegicus, UniProt P31424). The assay can be described thus: Tested for the agonistic activity against Metabotropic glutamate receptor 5; Not active.
In assay [2] the target is Metabotropic glutamate receptor 6 (Rattus norvegicus, UniProt P35349). The assay can be described thus: Tested for the agonistic activity against Metabotropic glutamate receptor 6.
The target in assay [3] is T2, Metabotropic glutamate receptor 2 (Rattus norvegicus, UniProt P31421). The assay can be described thus: Tested for the agonistic activity against Metabotropic glutamate receptor 2; Not active.
Assay [4] has as its target T3, Metabotropic glutamate receptor 1 (Rattus norvegicus, UniProt P23385). The assay can be described thus: Tested for the agonistic activity against Metabotropic glutamate receptor 1; Not active.
The target of assay [5] is T1, Metabotropic glutamate receptor 5. In words: Tested for the agonistic activity against Metabotropic glutamate receptor 5.
The target in assay [6] is T2, Metabotropic glutamate receptor 2. In words: Tested for the agonistic activity against Metabotropic glutamate receptor 2.
Assay [7] addresses T3, Metabotropic glutamate receptor 1. The assay can be described thus: Tested for the agonistic activity against Metabotropic glutamate receptor 1.

T2 sequence (P31421 whole entry): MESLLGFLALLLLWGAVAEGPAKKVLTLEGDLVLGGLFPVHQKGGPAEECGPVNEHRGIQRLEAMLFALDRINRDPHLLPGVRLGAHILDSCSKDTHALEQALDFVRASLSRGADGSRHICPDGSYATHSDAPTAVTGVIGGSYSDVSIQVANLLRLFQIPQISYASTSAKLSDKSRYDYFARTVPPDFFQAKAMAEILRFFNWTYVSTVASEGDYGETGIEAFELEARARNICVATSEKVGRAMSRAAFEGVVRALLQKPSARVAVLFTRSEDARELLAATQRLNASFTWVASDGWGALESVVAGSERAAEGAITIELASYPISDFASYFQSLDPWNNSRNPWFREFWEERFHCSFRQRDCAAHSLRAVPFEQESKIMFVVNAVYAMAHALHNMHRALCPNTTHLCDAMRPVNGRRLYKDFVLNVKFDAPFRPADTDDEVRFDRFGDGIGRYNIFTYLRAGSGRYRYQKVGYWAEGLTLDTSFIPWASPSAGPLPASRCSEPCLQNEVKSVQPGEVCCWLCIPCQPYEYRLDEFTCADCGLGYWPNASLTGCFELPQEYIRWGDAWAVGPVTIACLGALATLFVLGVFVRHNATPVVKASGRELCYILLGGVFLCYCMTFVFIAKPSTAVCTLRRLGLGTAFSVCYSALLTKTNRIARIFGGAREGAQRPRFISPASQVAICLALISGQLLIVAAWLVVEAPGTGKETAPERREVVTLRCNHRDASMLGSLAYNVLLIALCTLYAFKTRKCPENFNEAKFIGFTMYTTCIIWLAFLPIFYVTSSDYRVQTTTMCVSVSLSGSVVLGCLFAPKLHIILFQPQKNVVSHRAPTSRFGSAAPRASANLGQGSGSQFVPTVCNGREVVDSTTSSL
T3 sequence (P23385 whole entry): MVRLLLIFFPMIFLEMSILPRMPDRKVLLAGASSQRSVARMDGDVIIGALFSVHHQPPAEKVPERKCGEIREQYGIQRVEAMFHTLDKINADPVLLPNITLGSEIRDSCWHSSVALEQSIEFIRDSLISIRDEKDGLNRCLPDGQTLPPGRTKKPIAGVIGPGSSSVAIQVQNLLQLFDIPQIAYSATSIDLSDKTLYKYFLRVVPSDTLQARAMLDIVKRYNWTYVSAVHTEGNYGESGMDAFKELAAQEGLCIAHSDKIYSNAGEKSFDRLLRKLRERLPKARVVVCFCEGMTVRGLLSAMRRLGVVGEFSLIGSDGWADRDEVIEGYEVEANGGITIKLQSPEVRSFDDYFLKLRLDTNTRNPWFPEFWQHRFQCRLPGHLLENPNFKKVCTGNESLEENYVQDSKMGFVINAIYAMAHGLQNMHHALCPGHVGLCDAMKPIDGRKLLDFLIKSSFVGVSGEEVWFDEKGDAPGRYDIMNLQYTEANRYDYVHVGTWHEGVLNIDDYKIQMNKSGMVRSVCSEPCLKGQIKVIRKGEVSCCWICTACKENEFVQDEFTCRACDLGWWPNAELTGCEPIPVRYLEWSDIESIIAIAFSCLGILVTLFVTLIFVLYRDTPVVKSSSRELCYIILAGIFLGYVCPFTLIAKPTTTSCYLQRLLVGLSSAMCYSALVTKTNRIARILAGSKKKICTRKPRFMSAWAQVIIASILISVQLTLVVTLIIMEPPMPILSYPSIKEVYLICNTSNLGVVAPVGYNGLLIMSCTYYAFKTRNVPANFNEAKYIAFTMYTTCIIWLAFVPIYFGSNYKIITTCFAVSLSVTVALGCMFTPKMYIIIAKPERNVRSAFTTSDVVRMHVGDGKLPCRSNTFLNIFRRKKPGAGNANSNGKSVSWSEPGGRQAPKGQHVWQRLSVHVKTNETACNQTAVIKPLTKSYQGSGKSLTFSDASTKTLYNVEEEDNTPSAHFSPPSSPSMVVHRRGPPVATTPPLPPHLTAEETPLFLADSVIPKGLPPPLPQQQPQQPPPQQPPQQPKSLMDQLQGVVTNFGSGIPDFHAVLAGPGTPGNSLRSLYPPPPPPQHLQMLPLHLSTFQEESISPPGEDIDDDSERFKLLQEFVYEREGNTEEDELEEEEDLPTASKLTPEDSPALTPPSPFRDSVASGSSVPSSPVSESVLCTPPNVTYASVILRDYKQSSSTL
T1 sequence (P31424 whole entry): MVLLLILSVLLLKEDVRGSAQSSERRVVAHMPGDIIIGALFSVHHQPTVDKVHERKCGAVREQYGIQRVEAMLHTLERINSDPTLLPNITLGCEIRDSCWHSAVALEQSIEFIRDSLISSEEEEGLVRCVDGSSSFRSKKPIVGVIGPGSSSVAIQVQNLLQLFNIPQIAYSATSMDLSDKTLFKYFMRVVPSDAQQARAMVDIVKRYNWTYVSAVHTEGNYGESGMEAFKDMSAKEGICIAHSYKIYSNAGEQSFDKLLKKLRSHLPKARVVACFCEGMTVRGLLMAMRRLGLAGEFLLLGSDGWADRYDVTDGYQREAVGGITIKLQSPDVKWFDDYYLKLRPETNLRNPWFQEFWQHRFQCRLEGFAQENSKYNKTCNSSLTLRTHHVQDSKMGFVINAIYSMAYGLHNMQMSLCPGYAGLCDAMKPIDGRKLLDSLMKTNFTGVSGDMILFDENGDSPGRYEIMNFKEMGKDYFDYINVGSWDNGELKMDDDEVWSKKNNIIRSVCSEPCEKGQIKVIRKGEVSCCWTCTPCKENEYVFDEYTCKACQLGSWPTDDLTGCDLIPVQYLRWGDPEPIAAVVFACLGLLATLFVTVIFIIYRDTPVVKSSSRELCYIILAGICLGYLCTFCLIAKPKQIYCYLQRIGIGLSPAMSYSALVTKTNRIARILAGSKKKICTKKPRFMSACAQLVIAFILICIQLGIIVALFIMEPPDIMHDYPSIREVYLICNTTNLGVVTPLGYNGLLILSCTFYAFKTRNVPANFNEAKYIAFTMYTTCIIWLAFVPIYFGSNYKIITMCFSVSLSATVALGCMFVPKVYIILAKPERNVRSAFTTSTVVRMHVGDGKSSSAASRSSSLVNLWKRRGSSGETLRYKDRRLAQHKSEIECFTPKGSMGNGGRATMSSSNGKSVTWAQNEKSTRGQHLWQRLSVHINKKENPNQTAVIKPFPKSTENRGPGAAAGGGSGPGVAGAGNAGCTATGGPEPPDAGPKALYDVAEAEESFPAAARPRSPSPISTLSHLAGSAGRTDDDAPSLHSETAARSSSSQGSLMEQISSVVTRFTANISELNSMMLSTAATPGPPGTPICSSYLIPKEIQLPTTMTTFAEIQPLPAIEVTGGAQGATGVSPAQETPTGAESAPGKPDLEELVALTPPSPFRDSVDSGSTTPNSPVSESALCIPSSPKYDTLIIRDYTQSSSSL
Chain of Metabotropic glutamate receptor 6 (P35349 whole entry): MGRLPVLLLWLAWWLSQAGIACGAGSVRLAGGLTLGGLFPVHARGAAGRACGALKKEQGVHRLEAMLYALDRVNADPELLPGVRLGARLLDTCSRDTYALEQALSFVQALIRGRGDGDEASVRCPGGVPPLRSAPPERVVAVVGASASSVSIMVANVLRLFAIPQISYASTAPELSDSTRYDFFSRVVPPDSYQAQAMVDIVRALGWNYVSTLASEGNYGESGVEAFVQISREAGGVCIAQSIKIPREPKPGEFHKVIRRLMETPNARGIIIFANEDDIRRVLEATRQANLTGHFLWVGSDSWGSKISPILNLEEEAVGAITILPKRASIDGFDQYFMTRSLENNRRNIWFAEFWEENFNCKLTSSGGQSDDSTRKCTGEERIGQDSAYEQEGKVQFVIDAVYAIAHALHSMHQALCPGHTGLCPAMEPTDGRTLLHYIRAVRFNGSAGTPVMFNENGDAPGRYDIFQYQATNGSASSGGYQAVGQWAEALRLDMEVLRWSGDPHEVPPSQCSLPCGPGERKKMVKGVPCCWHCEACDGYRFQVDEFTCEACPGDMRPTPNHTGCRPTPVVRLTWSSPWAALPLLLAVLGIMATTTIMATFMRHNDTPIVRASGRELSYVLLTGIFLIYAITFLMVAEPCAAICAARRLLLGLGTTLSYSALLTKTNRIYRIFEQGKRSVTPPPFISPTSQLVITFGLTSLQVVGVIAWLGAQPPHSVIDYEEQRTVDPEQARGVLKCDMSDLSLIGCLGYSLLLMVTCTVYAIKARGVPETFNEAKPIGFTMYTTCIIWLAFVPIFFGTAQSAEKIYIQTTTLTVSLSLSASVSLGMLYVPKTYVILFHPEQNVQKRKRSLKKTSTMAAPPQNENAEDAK

Take `O=C(N[C@@]1(C(=O)O)CN[C@@H](C(=O)O)C1)c1ccccc1`: the EC50 entry was “Not Active” in assay [1], 1000 µM in assay [2], “Not Active” in assay [3] and “Not Active” in assay [4].
Take `N[C@]1(C(=O)O)C[C@H](C(=O)O)N(Cc2ccccc2)C1`: the IC50 in assay [5] was 600 µM; in assay [6] it was 200 µM. In addition, the EC50 in assay [2] was 20 µM; in assay [7] it was > 1000 µM.
Molecule `NC(CCP(=O)(O)O)C(=O)O` (stereo not given) returned an EC50 in assay [2] of 1 µM.
`N[C@@]1(C(=O)O)CC[C@@H](C(=O)O)C1`: the EC50 in assay [5] came to 15 µM; in assay [2] it was 60 µM.
As to `N[C@@]1(C(=O)O)CN[C@@H](C(=O)O)C1`, the EC50 in assay [5] was determined as 200 µM; in assay [2], 110 µM; in assay [6], 0.3 µM; in assay [7], 100 µM.
